Values quoted from earlier work as cited in patent publication US12387828B2, “System and method for ranking options for medical treatments” (PRXCISION LLC, priority 2015, dated 2025).

[1] = model value, multiplied by (WT/70)

CLt (total clearance) (equation in CLcr (mL/min) and WT (kg)): (10.2+2.08×CLcr)×(WT/70)×0.06
CLd (distributional clearance) [1]: 18.6 L/h
Vc (volume of the central compartment) [1]: 10.8 L
Vp (peripheral compartment volume) [1]: 12.6 L
SMILES: C[C@@H](O)[C@H]1C(=O)N2C(C(=O)O)=C(S[C@@H]3CN[C@H](C(=O)N(C)C)C3)[C@H](C)[C@H]12 [meropenem]
